Three compounds from patent publication US8372406B2, “Antitumoral and antiviral peptides” (priority 2004, dated 2013) can be followed below.

The subject of one test is R388D1-type tumor cells. The experiment in a line: In vitro influence on tumor cells proliferation (mass culture, cell counts). It is filed as cell-based, mouse. The protocol:
Object of instant experiments is the comparative analysis of influence of allostatin and alloferon on tumor cells proliferation. Effects of allostatin-1 and alloferon-1 in concentrations 0.001, 0.01, 0.1, 1, and 10 microgram per ml on proliferative activity in a mass culture of R388D1-type tumor cells were compared. 5000 cells suspended in 2 ml of […] medium were seed into wells of 24-socket plates. Medium used for the experiments comprises 5% fetal calf serum produced by firm “Biolot”. Preparations were introduced into wells in 0.2 ml of the sane medium immediately after inoculation, and, in control, equivalent amount of the medium was introduced without medications. Number of cells in 1 ml of incubating medium was estimated by means of hemocytometric camera. Average number of cells in 1 ml of incubating medium after 21, 44, 99 and 144 hours after beginning of the experiment was estimated on the base of 3 independent measurements.
FIG. 3 presents a typical view of allostatin and alloferon influence on growth dynamics of tumor cell population. As an evaluation indicator of anti-proliferative activity of the medication, the value of a growth multiplicity of the population for 90 hours was selected, which value is determined as a ratio of a number of cells in a well in the beginning and at the end of the incubation time. […]

Test [1] has as its system R388D1 cells (lymphoid neoplasm of a mouse). The experiment in a line: Clonogenic activity of tumor cells, interaction with cyclophosphamide. The class given is cell-based. Conditions: clones counted after 7 days; for influence upon the cloning process (clonogenic activity): taken separately.
For test [2], the system named is tumor cells of the syngeneic line R388D1. In words: Antitumoral action on transplanted tumors in mice. The class given is in vivo, mouse (line DBA-1). The protocol: Each of laboratory mouse (line DBA-1) was subcutaneously injected by 3000 tumor cells of the syngeneic line R388D1. Next day mice were separated into 4 experimental groups. Mice of the first group have got only allostatin in a subcutaneous way in a dosage on 25 microgram at 4, 11 and 18 day after tumor cell transplantation. Second group has got a combination of cytostatic agents, cyclophosphamide (0.56 mg), doxorubicine (0.036 mg) and vincrystine (1.05 microgram) on the day of transplantation and after 7, 14 and 21 days. Third group has got allostatin and combination of cytostatic agents in the same way. Mice of the fourth group (control group) were injected by the solvent (0.9% NaCl) in the same days.

The test system of another test is leucocytes of a human. The experiment in a line: Interferon in vitro synthesis by human leucocytes (interferonogenic activity). It is filed as cell-based. Conditions: 0.01-10 microgram/ml, 24 hours, 6 donated blood samples.
The subject of test [3] is mice tumor syngeneic graft. The experiment in a line: Growth of mice tumor syngeneic graft (alloferon research). Conditions: mouse, in vivo.
The next test has as its system tumor cells. The experiment in a line: In vitro effect of alloferon on tumor cell proliferation. The class given is cell-based. Conditions: depending on concentration in cultural media.

Turning to “allostatin: Linear 13-amino-acid peptide, SEQ ID NO 1; differs from alloferon-1 by tryptophan at position 6 and threonine at position 11 (HGVSGWGQHGTHG; Synthetic construct designed on the basis of the peptides SEQ ID NO 2-12 comparison)”, in the test with R388D1-type tumor cells (10 microgram/ml, over the observation period), the “growth of the tumor cell population” value was “almost completely stopped the growth”. In the test on R388D1-type tumor cells (concentrations of 0.001-1 mkg/ml, growth multiplicity for 90 hours), the “anti-proliferative activity relative to alloferon (growth multiplicity of the population)” value was 3-7 times. Also, the “clonogenic activity of tumor cells” value in test [1] (allostatin in combination with cyclophosphamide) is given as “significantly decreased a clonogenic activity of tumor cells, proportionally to allostatin dose”. The “influence upon the cloning process (clonogenic activity)” value in test [1] was “Neither cyclophosphamide, nor allostatin taken separately, had a significant influence”. In test [2] (allostatin 25 microgram s.c. (days 4, 11, 18) combined with cytostatics (cyclophosphamide, doxorubicine, vincrystine)), the “mice with formed tumors during observation period” value was 40%. In addition, in test [2] (allostatin or cytostatics given separately, DBA-1 mice, 3000 R388D1 cells subcutaneously), the tumor formation entry is “tumors were formed after some delays, and moderate part of animals has not exhibited tumor formation”. Besides, the antitumoral action entry in test [2] (combination of allostatin and cytostatics) was “strong and in the most cases irreversible antitumoral action”. The “interferonogenic activity (allostatin vs alloferon)” value with leucocytes of a human is on record as “have no significant difference”.

In the case of “alloferon: Known immunomodulating peptide, SEQ ID NO 12; closest analogue, histidine and valine in positions 6 and 11 (HGVSGHGQHGVHG; Alloferon-1; listed as Calliphora vicina)”, the “interferonogenic activity (allostatin vs alloferon)” value in the test with leucocytes of a human is reported as “have no significant difference”. The “growth of mice tumor syngeneic graft” value in test [3] was “depresses the growth”. Besides, the “proliferation of tumor cells” value with tumor cells is “may both inhibit (at high concentrations) and stimulate (at low concentrations)”.

`O=P1(N(CCCl)CCCl)NCCCO1` (stereo not drawn) [cyclophosphamide, reference compound]: the “influence upon the cloning process (clonogenic activity)” value in test [1] is given as “Neither cyclophosphamide, nor allostatin taken separately, had a significant influence”.
